{
  "source": "patent US11505579B2",
  "about": "“Methods of treatment and related compositions” (ASCEND BIOPHARMACEUTICALS LTD, priority 2020, dated 2022)",
  "key": {"B16F10 tumours": {"test_system": "B16F10 tumours", "test": "Tumour growth and survival of B16F10 tumour-bearing mice (B16F10-e357 study)", "type": "in vivo, mouse", "conditions": "for mice alive after day 12: culled at ethical end point", "procedure": "The B16F10 murine colon carcinoma cell line was maintained in DMEM medium containing 10% fetal bovine serum, 2 mM glutamine, 100 units/mL sodium penicillin G, 25 μg/mL gentamicin, and 100 μg/mL streptomycin sulfate. The tumour cells were cultured in tissue culture flasks in a humidified incubator at 37° C., in an atmosphere of 5% CO2 and 95% air.\nB16F10 cells were harvested during log phase growth and resuspended in PBS. Each mouse was injected subcutaneously in the right flank with 5×10^5 cells (in a 0.1 mL cell suspension). Tumours were calipered in two dimensions to monitor growth as their mean volume approached the desired 30 to 60 mm^3 range. Tumour size, in mm^3, was calculated from:\n[formula] where w=width and l=length, in mm, of the tumour. Tumour weight can be estimated based on the assumption that 1 mg is equivalent to 1 mm^3 of tumour volume.\nEight days after tumour cell implantation, on Day 1 of the study, animals were sorted into eight groups (n=10 per group) according to tumour volume, with individual tumour volumes ranging from 32 to 63 mm^3 and group mean tumour volumes ranging from 41 to 42 mm^3. Tumour progression was monitored using caliper measurements three times weekly for the duration of the study.\nVismodegib and Ad5-mIFNg (stock concentration 3.3×10^12 viral particles/mL) were stored at −80° C. prior to formulation. On each day of dosing, Vismodegib was dissolved in vehicle 2 (75% PEG400:25% D5W (5% dextrose in water)) to obtain 5 mg/mL and 10 mg/mL dosing solutions which delivered a dose of 50 mg/kg and 100 mg/kg when administered in a volume of 10 mL/kg (0.2 mL per 20 g mouse), adjusted to the body weight of each animal.\nOn the first day of dosing, Ad5-mIFNg was thawed rapidly and diluted in vehicle 1 (1 M saccharose, 54 mg/L Tween® 80, 10 mM Tris, 1 mM MgCl2, 150 mM NaCl, pH 8) to obtain dosing solutions of 5×10^11 particles/mL and 2×10^11 particles/mL, which delivered 1×10^10 particles/animal when dosed in a fixed volume of 20 μL and 50 μL per animal, respectively.\nOn Day 1 of the study, female mice bearing established B16F10 tumours were sorted into eight groups (n=10 per group) and began dosing according to the treatment plan summarized in Table 2. Vehicle 1 and Ad5-mIFNg (1×10^10 particles per animal) were administered intratumourally (itu) in a fixed volume of either 20 μL or 50 μL; vehicle 2 and Vismodegib were administered orally (po) in a volume of 10 mL/kg (0.2 mL per 20 g mouse), adjusted to the body weight of each animal. The groups were as follow:\nGroup 1 served as the control group and received 20 μL vehicle 1 itu once a day (qd) for three days (qd×3) and vehicle 2 po qd×7.\nGroup 2 received 20 μL vehicle 1 itu qd×3 and 50 mg/kg vismodegib po qd×7.\nGroup 3 received 1×10^10 particles/animal Ad5-mIFNg in 20 μL itu qd×3 and vehicle 2.\nGroup 4 received 1×10^10 particles/animal Ad5-mIFNg 1 itu qd×3 and 50 mg/kg vismodegib 2 po qd×7.\nGroup 5 received 20 μL vehicle 1 itu once a week for a week (qwk×1) followed by 50 μL vehicle 1 itu qwk×1 (starting on Day 8) in addition to vehicle 2 po three times a week (tiwk) to Day 10.\nGroup 6 received 20 μL vehicle 1 itu once a week for a week (qwk×1) followed by 50 μL vehicle 1 itu qwk×1 (starting on Day 8) and 100 mg/kg Vismodegib in vehicle 2 po tiwk to Day 13. […]"}, "[1]": {"test_system": "operable basal cell carcinoma", "conditions": "Vismodegib 150 mg daily over 12 weeks; Sofen et al. (2015); cited from earlier work"}},
  "data": [
    {"smiles": "CS(=O)(=O)c1ccc(C(=O)Nc2ccc(Cl)c(-c3ccccn3)c2)c(Cl)c1", "note": "[Vismodegib]", "values": [
      {"measurement": "tumour growth compared to the control vehicle treated groups", "setting": "B16F10 tumours; G2: Vismodegib 50 mg/kg po qd×7, vehicle 1 itu qd×3", "result": "did not significantly reduce tumour growth"},
      {"measurement": "mice alive after day 12", "setting": "B16F10 tumours; G2: Vismodegib 50 mg/kg po qd×7", "result": "none"},
      {"measurement": "mice still alive on day 36 (number of mice)", "setting": "B16F10 tumours; G2: Vismodegib only 50 mg/kg po qd×7, day 36", "result": "no mice"},
      {"measurement": "tumour growth compared to the control vehicle treated groups", "setting": "B16F10 tumours; G6: Vismodegib 100 mg/kg po tiwk×3, vehicle 1 itu", "result": "did not significantly reduce tumour growth"},
      {"measurement": "mice alive after day 12", "setting": "B16F10 tumours; G6: Vismodegib 100 mg/kg po tiwk×3", "result": "none"},
      {"measurement": "loco-regional CHC", "setting": "[1]", "result": 16, "unit": "%"}
    ]}
  ]
}
